The source made the active and inactive calls.
What was measured:
Protein Wnt-3a = Protein Wnt-3a (Mus musculus, UniProt P27467); assay: antagonism of Wnt3a pathway luciferase reporter – Wnt-LIGHT cells, luminescence, selectivity assay for Gli-SUFU antagonist project, dose response (AID 651570); assay type: functional; settings: read-out: IC50_Mean;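 also: Wnt-LIGHT reporter cells stimulated with conditioned medium from Wnt3a-producing cells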
cells = assay type: functional, cell-based; settings: HEK-CNG
[1] = target: T1, COUP transcription factor 2 (Homo sapiens, UniProt P24468); assay: Luminescence-based cell-based high throughput dose response assay to identify inhibitors of COUP-TFII (NR2F2).; assay type: functional;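 also: HEK293 cells transiently cotransfected with COUP-TFII expression vector and reporter; luciferase reporter luminescence driven by COUP-TFII from the pX2-168 reporter plasmid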
T1 sequence (P24468 whole entry): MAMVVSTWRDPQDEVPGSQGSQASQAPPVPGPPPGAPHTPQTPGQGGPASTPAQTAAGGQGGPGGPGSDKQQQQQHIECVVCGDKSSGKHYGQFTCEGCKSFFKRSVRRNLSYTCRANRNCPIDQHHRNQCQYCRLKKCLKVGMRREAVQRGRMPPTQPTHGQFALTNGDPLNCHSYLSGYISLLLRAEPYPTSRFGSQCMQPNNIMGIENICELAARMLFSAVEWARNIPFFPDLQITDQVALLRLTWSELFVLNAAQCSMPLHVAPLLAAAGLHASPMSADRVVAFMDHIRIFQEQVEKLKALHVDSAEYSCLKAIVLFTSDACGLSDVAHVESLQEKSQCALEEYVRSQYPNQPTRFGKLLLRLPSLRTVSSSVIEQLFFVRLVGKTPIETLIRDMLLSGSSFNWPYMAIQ

Galanin receptor type 3 = target: T2, Galanin receptor type 3 (Homo sapiens, UniProt O60755); assay: Fluorescence-based cell-based primary high throughput dose response assay to identify antagonists of the Galanin Receptor 3 (GalR3).; assay type: functional
T2 sequence (O60755 whole entry): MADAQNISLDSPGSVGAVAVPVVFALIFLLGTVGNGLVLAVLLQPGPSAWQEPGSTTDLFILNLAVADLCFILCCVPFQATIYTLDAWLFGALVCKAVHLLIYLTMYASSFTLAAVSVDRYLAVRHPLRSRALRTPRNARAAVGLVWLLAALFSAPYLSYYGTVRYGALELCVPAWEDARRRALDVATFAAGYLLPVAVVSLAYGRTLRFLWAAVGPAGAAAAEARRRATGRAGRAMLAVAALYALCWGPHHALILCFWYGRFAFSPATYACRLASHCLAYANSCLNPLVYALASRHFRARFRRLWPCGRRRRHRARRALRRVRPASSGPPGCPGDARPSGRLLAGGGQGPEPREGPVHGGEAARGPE

[2] = target: T3, Neuropeptide Y receptor type 1 (Homo sapiens, UniProt P25929); assay: IC50 of human NPY-Y1 blockers – cell-based, dose response (AID 1277); assay type: functional
T3 sequence (P25929 whole entry): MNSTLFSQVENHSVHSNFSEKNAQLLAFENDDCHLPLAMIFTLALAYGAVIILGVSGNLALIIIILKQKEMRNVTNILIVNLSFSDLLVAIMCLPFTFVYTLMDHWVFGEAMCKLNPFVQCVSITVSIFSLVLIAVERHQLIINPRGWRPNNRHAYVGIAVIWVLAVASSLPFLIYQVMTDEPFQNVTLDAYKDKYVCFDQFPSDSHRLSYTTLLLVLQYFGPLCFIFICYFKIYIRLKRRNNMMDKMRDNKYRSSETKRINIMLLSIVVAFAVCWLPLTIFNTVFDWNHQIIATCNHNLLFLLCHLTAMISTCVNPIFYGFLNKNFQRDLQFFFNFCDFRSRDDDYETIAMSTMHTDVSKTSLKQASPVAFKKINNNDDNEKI

[3] = decrease of insulin promoter-GFP reporter – imaging, high-content screening, mouse beta cells (AID 1628); assay type: functional; settings: MIN6
[4] = target: T4, Neuropeptide Y receptor type 2 (Homo sapiens, UniProt P49146); assay: IC50 for human NPY-Y2 blockade – cell-based, counter-screen for NPY-Y1 antagonist project, dose response (AID 1278); assay type: functional
T4 sequence (P49146 whole entry): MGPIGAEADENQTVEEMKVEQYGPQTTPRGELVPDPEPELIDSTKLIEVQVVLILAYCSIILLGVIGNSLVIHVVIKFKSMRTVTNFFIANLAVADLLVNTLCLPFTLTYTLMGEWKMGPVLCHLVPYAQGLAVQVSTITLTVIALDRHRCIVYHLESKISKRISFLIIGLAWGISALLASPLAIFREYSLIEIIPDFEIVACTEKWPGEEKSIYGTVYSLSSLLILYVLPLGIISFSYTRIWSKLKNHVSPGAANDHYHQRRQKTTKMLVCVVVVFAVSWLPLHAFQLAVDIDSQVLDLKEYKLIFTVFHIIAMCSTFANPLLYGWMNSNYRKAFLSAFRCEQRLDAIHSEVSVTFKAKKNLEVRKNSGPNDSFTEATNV

INS1 = assay: INS-1E survival protection against cytokine death – cell-based, luminescence, retest, dose response (AID 449756); assay type: functional;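 also: cell death triggered by IL-1 beta plus TNF-alpha plus IFN-gamma mixture; protective hits raise ATP signal compared with cytokine alone wells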
[5] = MIN6 cell viability loss – mouse insulinoma, cytotoxicity control, dose response (AID 2122); assay type: functional;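 also: confirmatory high-throughput counterscreen run to flag cytotoxic compounds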
HT-1080 = assay: HT1080 cell viability loss – fluorescence readout (AID 620); assay type: functional, cell-based; settings: Homo sapiens
[6] = Luminescence-based counterscreen assay for KLF5 inhibitors: dose response cell-based high throughput screening assay to identify cytotoxic compounds using the IEC-6 intestinal epithelial cell line. [Related pubchem assays: 1700 (Primary screen.), 1834 (Confirmation screen.), 1858 (Summary AID.), 1905 (Counterscreen.)]; assay type: functional
[7] = target: Luciferin 4-monooxygenase (Photinus pyralis, UniProt P08659); assay: Counter Screen for Luciferase-based Assay Positives. [Related pubchem assays: 620, 618, 411 ]
Ion channel NompC = Ion channel NompC (Danio rerio, UniProt Q7T1G6); assay: Dose response cell-based high-throughput screening assay for agonists of the transient receptor potential channel N1 (TRPN1). [Related pubchem assays (depositor defined):AID1424, AID1448]; assay type: functional
Mucolipin-3 = target: T5, Mucolipin-3 (Homo sapiens, UniProt Q8TDD5); assay: Fluorescence counterscreen assay for […] agonists: dose response cell-based high-throughput screening assay to identify agonists of the transient receptor potential channel ML3 (TRPML3). [Related pubchem assays: 1424, 1448 ]; assay type: functional
T5 sequence (Q8TDD5 whole entry): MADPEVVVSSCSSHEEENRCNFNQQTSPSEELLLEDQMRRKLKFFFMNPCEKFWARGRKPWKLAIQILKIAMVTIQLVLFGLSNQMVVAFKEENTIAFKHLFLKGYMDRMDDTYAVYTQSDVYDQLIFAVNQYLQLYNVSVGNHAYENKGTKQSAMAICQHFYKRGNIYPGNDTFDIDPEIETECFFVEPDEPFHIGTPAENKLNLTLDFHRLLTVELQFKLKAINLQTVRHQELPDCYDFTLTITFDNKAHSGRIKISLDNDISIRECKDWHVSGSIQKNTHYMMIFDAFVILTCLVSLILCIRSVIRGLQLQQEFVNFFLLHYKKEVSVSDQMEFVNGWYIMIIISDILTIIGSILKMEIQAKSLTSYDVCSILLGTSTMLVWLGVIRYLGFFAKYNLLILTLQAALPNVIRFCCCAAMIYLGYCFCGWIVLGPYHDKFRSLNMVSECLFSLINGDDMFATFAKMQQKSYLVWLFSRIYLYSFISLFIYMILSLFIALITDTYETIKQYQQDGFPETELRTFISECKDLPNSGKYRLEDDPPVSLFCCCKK

[8] = mitochondrial function rescue without frataxin homolog – Friedreich's ataxia, plus single-dose screen, dose response (AID 1465); assay type: functional;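 also: yeast depleted of Yfh1p frataxin homolog grown on glycerol needing respiration; WST-1 tetrazolium dye reduction as measure of cellular dehydrogenase metabolic activity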
Troponin, cardiac muscle = Troponin, cardiac muscle (Homo sapiens, UniProt P19429+P45379+P63316); assay: Fluorescence-based biochemical high throughput dose response assay for activators of the calcium sensitivity of cardiac Regulated Thin Filaments (RTF). [Related pubchem assays (depositor defined):AID493008, AID493018, AID504382, AID504383]; assay type: protein-complex assay
[9] = Counterscreen for IDE inhibitors: Luminescence-based cell-based high throughput dose response assay to identify compounds that are cytotoxic to HEK cells. [Related pubchem assays: 434962 (Primary screen (IDE inhibitors in singlicate)), 449730 (Counterscreen (Cytotoxicity in triplicate)), 435028 (Confirmation (IDE inhibitors in triplicate)) …; assay type: functional; settings: HEK293
Insulin-degrading enzyme = target: T6, Insulin-degrading enzyme (Homo sapiens, UniProt P14735); assay: Dose Response: Fluorescence polarization-based cell-based high throughput dose response assay for inhibitors of insulin-degrading enzyme (IDE). [Related pubchem assays: 434962 (Primary screen (IDE inhibitors in singlicate)), 449730 (Counterscreen (Cytotoxicity in triplicate)), 435028 (Confirmation (IDE inhibitors in triplicate)), 434984 (Summary …; assay type: functional
T6 sequence (P14735 whole entry): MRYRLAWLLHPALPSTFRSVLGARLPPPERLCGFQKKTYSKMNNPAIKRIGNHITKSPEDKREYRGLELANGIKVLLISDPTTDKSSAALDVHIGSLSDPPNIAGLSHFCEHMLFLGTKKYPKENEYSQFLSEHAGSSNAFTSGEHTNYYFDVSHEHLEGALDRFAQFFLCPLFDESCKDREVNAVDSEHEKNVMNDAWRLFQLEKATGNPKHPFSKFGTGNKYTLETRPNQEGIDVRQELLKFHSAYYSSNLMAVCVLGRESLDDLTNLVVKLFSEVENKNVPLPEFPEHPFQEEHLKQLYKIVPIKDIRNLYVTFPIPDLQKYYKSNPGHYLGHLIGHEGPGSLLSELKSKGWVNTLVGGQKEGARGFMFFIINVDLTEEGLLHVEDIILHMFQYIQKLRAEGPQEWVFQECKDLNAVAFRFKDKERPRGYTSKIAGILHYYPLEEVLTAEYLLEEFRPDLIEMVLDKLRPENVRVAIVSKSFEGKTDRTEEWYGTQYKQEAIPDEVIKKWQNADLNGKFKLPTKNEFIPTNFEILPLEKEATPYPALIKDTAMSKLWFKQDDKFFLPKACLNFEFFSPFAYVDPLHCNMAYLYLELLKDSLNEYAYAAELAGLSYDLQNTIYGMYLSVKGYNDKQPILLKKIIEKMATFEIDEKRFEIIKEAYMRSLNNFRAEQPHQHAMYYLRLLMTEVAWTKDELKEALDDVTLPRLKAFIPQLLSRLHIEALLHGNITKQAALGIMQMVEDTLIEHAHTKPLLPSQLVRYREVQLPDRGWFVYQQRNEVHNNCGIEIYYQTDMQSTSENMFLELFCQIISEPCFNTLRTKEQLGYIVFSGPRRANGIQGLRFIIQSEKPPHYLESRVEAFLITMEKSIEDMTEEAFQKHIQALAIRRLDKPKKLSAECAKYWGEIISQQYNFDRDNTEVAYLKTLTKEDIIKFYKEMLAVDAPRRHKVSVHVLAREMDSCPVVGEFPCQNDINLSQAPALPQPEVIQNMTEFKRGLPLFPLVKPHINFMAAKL

Chain of Protein Wnt-3a (P27467 whole entry): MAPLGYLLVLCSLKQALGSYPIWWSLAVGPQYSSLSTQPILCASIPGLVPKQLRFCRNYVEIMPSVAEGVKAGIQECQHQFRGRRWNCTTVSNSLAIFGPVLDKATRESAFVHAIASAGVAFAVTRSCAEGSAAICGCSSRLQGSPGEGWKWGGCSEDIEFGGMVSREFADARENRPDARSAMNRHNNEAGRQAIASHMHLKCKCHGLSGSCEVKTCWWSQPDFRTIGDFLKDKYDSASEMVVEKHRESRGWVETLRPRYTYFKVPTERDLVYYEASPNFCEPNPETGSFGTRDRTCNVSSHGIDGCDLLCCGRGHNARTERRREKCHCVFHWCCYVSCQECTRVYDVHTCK
Chain of Luciferin 4-monooxygenase (P08659 whole entry): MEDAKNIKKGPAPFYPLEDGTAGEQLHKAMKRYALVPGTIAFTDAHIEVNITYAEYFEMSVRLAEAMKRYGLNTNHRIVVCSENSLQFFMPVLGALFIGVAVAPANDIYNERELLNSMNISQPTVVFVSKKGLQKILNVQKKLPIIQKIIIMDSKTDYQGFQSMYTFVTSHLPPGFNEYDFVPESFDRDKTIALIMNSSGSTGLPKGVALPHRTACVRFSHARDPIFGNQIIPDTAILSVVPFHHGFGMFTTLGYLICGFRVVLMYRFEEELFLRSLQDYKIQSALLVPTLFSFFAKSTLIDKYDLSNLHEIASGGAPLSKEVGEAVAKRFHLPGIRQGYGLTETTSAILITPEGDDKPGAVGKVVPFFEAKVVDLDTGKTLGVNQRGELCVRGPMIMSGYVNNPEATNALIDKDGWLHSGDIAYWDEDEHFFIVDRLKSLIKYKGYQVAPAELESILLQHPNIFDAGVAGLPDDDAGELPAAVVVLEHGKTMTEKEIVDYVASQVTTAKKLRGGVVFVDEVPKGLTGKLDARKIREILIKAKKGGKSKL
Chain of Ion channel NompC (Q7T1G6 whole entry): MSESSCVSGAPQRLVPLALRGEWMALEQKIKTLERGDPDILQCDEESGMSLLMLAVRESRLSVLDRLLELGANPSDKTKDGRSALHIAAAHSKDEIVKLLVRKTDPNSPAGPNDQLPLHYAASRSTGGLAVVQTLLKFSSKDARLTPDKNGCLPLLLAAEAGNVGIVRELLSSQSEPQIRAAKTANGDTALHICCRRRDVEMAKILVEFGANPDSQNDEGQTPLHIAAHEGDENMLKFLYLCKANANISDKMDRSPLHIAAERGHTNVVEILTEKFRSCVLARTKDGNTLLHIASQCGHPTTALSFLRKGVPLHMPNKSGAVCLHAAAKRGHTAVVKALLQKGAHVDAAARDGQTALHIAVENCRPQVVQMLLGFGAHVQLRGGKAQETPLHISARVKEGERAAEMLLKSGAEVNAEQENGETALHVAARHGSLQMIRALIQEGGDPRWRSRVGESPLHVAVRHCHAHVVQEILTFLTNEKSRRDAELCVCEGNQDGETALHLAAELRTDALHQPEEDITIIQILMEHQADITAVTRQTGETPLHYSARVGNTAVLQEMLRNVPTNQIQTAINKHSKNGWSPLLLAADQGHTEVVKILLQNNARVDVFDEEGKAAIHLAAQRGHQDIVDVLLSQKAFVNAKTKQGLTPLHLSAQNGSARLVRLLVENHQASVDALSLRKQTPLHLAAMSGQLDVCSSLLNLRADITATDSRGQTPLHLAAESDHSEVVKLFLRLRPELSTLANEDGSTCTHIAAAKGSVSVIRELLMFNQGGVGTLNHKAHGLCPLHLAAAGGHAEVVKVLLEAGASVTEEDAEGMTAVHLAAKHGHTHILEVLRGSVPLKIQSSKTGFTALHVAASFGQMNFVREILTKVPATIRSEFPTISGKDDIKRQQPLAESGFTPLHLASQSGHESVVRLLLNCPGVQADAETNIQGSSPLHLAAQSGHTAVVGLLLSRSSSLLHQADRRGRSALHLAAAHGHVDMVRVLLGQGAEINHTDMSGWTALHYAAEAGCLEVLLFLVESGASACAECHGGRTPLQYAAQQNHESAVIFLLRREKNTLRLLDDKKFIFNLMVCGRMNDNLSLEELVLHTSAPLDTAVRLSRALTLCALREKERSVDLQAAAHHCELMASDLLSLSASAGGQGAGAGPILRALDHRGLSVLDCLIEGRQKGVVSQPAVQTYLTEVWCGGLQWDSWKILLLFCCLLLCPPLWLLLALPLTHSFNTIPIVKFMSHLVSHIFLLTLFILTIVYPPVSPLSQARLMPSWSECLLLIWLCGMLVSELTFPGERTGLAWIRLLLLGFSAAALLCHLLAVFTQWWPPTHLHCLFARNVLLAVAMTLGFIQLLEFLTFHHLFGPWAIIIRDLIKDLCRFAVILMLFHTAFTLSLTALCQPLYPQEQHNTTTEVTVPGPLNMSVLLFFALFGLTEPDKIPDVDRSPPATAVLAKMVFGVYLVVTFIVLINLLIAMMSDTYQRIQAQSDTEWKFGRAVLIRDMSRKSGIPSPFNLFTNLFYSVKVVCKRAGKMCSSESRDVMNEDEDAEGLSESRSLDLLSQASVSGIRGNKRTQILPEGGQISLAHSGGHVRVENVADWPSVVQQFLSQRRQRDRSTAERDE

With `COc1ccccc1-n1c(-c2ccccc2)c[n+]2c1CCc1ccccc1-2` the IC50 (Protein Wnt-3a) was 6.31 µM (active), the EC50 (cells) was > 29.9 µM (inactive) and the IC50 [1] was 6.73 µM (active). The IC50 (Galanin receptor type 3) was > 1.11 µM (active), the IC50 [2] was 8.77 µM (active) and the IC50 [3] was 0.548 µM (active). The IC50 [4] was 11.6 µM (not active), the AC50 (INS1; Rattus norvegicus, INS1) was 2.31 µM (active) and the AC50 (INS1; ins1) was 3.62 µM (active). The IC50 [5] was 0.266 µM (active).
In the case of `O=C(Nc1nccs1)c1cc2c(s1)CCCCC2`, the EC50 (HT-1080) is reported as > 50 µM (not active), the IC50 [6] is reported as 33.2 µM (not active) and the EC50 [7] is reported as 8.26 µM (active).
In the case of `CN1CCS/C1=C/C=C1\SC(=S)N(CC(=O)O)C1=O`, the EC50 (Ion channel NompC) is reported as 5.92 µM (active), the EC50 (Mucolipin-3) is reported as 12.2 µM (not active) and the EC50 [8] is reported as > 100 µM (active). The EC50 (Troponin, cardiac muscle) was 0.87 µM (active).
In the case of `Cc1ccc(/C=N\NC(=O)/C(=C\Nc2nccc(C)n2)NC(=O)c2ccccc2)cc1`, the IC50 [9] is reported as > 55.7 µM (not active) and the IC50 (Insulin-degrading enzyme) is reported as 5.43 µM (active).

Source: ChEMBL document CHEMBL1201862, “PubChem BioAssay data set” (2004)
